# Reference: PMC6600542 (Molecules, 2019)
# Values joined by “and” are separate entries in the source; they are usually repeats but may differ in a detail not shown here. Identical values can stand only once.
# What was measured:
# [1] = test system: normal human plasma; experiment: PT clotting assay, normal human plasma; format: biochemical; details: for concentration to double the PT: normal human plasma (text)
# Experimental: (§1) For the PT assay, thromboplastin-D was reconstituted according to the manufacturer’s directions and warmed to 37 °C. […] After incubation for 4 min at 37 °C, clotting was initiated by adding 100 μL of prewarmed 25 mM CaCl2 and the time to clotting was noted. […] To determine the in vitro effect on the APTT of deficient human plasmas, the APTT assay was repeated, using human plasmas deficient of factor VII (FVII), factor IX (FIX), FXI, or factor XII (FXII). […] The positive control used in APTT and PT assays was rivaroxaban, a clinically used FXa inhibitor. Under the conditions reported, rivaroxaban doubled the APTT and PT at concentrations of 0.123 ± 0.003 µM and 0.193 ± 0.043 µM, respectively.
# [2] = test system: normal human plasma; experiment: TT clotting assay, normal human plasma; format: biochemical; details: for concentration to double the TT: normal human plasma (text)
# [3] = target: T1, human neutrophil elastase (Homo sapiens, UniProt P08246); experiment: Neutrophil elastase chromogenic substrate hydrolysis assay; format: biochemical; details: pH 7.4
# T1 construct: purchased Elastin Products Company
# T1 sequence (P08246 30-247 limits assumed): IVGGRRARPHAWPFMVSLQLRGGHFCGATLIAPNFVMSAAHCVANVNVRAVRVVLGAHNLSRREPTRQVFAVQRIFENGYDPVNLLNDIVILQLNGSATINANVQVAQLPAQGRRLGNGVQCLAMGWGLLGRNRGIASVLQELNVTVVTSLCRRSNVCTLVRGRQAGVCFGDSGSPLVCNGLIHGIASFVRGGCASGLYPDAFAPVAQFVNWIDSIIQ
# Experimental: Direct inhibition of the human coagulation transglutaminase FXIIIa was also studied using a fluorescence-based transglutamination assay as reported in the literature.
# After 10 min incubation, 5 µL FXIa substrate (6.9 mM stock concentration) was rapidly added and the residual FXIa activity was measured from the initial rate of increase in absorbance at 405 nm. Assays were performed in similar fashion with trypsin and chymotrypsin. Stock concentrations used were 18.9 µg/mL (trypsin) and 22.7 mM (S-2222) for bovine trypsin assay (final volume was 200 µL) and 2 µg/mL (chymotrypsin) and 16.2 mM (N-Succinyl-Ala-Ala-Pro-Phe-p-nitroanilide) for bovine chymotrypsin assay (final volume was 200 µL). The buffer used for FXIa, trypsin, chymotrypsin assays was 50 mM Tris-HCl buffer, pH 7.4, containing 150 mM NaCl, 2.5 mM CaCl2, 0.1% PEG8000, and 0.02% Tween80. Neutrophil elastase inhibition assay was performed in a 96-well plate with a final volume of 100 µl with 0.125 M 4-(2-hydroxyethyl)-1-piperazineethanesulfonic acid (HEPES) buffer, pH 7.4 containing 0.125% Triton-X 100, as reported earlier. […] After incubation, 3 µL neutrophil elastase substrate (S-1384; 25 mM stock conc.) was rapidly added and the residual enzyme activity measured from the initial rate of increase in the absorbance at 405 nm.
# [4] = test system: clotting times; details: cited from earlier work
# [5] = target: T2, human plasmin (Homo sapiens, UniProt P00747); experiment: Michaelis-Menten kinetics of Spectrozyme PL hydrolysis by plasmin; format: biochemical; details: for VMAX of Spectrozyme PL hydrolysis: pH 7.4, 37 °C
# T2 sequence (P00747 581-810 limits assumed): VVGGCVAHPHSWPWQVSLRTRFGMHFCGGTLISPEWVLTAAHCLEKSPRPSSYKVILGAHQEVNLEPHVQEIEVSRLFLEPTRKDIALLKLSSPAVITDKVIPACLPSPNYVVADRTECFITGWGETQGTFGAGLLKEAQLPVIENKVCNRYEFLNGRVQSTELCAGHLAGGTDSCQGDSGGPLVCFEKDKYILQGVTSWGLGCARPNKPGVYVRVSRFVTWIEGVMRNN
# T2 sequence (P00747 97-580 partner limits assumed): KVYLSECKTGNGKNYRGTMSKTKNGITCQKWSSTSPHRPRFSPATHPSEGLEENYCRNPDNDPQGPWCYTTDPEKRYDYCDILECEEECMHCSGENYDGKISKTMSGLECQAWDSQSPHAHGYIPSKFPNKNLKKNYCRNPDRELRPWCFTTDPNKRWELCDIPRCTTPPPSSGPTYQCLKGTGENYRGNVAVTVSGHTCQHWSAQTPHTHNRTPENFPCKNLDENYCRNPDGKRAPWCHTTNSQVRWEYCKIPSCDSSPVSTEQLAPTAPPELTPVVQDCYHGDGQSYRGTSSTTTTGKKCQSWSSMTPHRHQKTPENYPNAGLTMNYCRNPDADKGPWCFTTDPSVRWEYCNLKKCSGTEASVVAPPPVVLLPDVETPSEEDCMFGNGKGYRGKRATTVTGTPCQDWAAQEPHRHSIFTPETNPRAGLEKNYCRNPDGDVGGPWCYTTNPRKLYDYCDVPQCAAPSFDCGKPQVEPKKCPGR
# Experimental: The initial rate of Spectrozyme FXa hydrolysis by human FXa (87 nM) or that of Spectrozyme PL hydrolysis by human plasmin (120 nM) was monitored from the linear increase in absorbance at 405 nm corresponding to less than 10% consumption of the substrate. […] The data were fitted by Michaelis-Menten Equation (2) to determine KM (substrate affinity to the enzyme) and VMAX (maximum velocity of enzyme reaction). (2) Vi=VMAX×[S]/KM+[S]
# [6] = target: T2, human plasmin; experiment: In vitro plasmin-mediated clot lysis (fibrinolysis) assay; format: biochemical; details: rate of clot lysis over 5–100 min, pH 7.4, 25 °C
# Experimental: The method followed here was similar to that reported earlier. This in vitro experiment was conducted in 96-well platform in pH 7.4 buffer at 25 °C. The clot was generated by the addition of 80 µL of a solution of human thrombin (2.5 µg/mL) in 20 mM TrisHCl buffer containing 10 mM CaCl2 to 60 µL of a solution of fibrinogen (10 mg/mL) and FXIIIa (2 µg/mL) in 20 mM TrisHCl buffer containing 10 mM CaCl2. The resulting clot was stabilized for 15 min at 25 °C. The absorbance was then measured at 405 nm and was ~0.98 across all wells. […] Finally, 5 µL of human plasmin (stock of 1.6 µM) in 20 mM TrisHCl buffer of pH 7.4 containing 2.5 mM CaCl2 and 100 mM NaCl was added to each well and the A405 of each well was recorded over more than 340 min at various time intervals. […] (1) Y=Y0+YM−Y0/1+10^(log[I]0−logIC50)(HS)
# [7] = set-up: method as in PMID 3491164, PMID 3680992, PMID 1984463; details: patients; read-out: means of plasma CMAX; cited from earlier work
# [8] = target: human FXa (Homo sapiens, UniProt P00742); experiment: FXa chromogenic substrate hydrolysis assay; format: biochemical; details: pH 7.4, 37 °C
# Chain of human FXa (P00742 235-488 limits assumed): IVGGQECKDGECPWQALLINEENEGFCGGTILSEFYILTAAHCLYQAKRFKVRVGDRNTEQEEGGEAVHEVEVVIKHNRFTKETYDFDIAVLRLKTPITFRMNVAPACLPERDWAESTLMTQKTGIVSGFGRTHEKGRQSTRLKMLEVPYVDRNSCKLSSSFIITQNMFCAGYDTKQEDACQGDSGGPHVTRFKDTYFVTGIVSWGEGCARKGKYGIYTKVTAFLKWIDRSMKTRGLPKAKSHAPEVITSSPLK
# Chain of human FXa (P00742 41-179 partner limits assumed): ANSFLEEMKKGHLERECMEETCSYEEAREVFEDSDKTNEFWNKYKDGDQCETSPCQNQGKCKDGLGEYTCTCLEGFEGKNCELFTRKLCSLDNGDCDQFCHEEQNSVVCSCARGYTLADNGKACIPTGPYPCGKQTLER
# Experimental: Direct inhibition of human FXa and α-thrombin of the common coagulation pathway and human plasmin of the fibrinolysis pathway were measured using the corresponding chromogenic substrate hydrolysis assays at 37 °C and pH 7.4, as reported earlier using the 96-microplate platform. […] After 10 min incubation, 5 µL Spectrozyme FXa (5 mM stock conc.) was rapidly added and the residual activity of FXa was measured from the initial rate of increase in absorbance at 405 nm. […] The concentration vs effect curve was constructed using logistic Equation (1) from which the potency (IC50) and efficacy (ΔY) of inhibition were also obtained.
# [9] = test system: human plasma deficient of FVII; experiment: APTT clotting assay, FVII-deficient plasma; format: biochemical
# Experimental: as §1
# [10] = test system: human plasma deficient of FIX; experiment: APTT clotting assay, FIX-deficient plasma; format: biochemical
# Experimental: as §1
# [11] = test system: platelet-aggregation induced by adenosine diphosphate, epinephrine, thrombin, and collagen; details: cited from earlier work
smiles,measurement,setting,value
"N=C(N)c1ccc(OCCCCCOc2ccc(C(=N)N)cc2)cc1 [pentamidine isethionate, 4,4′-(pentane-1,5-diylbis(oxy))-dibenzimidamide]","PTEC2×, concentration to double clotting time","[1]; PT assay, normal human plasma",45.70 ± 0.85 µm
same,concentration to double the PT,[1],45.7 µM and 45.70 ± 0.85 µM
same,concentration to double the PT,[1]; listed as pentamidine,lower than 50 µM
same,"TTEC2×, concentration to double clotting time","[2]; TT assay, normal human plasma",158.17 ± 30.87 µm
same,concentration to double the TT,[2],158.17 µM and 158.17 ± 30.87 µM
same,concentration to double the TT,[2]; listed as pentamidine,> 150 µM
same,IC50,[3],> 100 µM
same,concentration that prolongs clotting times,[4],greater than 8.4 µM
same,VMAX of Spectrozyme PL hydrolysis,[5]; 10 µM pentamidine isethionate,78.7 ± 2.0 mAU/min
same,VMAX of Spectrozyme PL hydrolysis,[5]; 20 µM pentamidine isethionate,88.4 ± 1.0 mAU/min
same,VMAX of Spectrozyme PL hydrolysis,[5]; 50 µM pentamidine isethionate,92.9 ± 3.2 mAU/min
same,VMAX of Spectrozyme PL hydrolysis,[5]; 100 µM pentamidine isethionate,90.9 ± 6.5 mAU/min
same,type of inhibition of plasmin,[5]; Michaelis-Menten kinetics,competitively inhibits
same,increase of KM for Spectrozyme PL,[5]; inhibitor 100 μM vs absence,~ 13.9 fold
same,HS (Hill slope) of clot lysis inhibition,[6],1.2 ± 0.7
same,efficacy (ΔY) of clot lysis inhibition,[6],~ 58%
same,IC50,[6]; read-out: IC50 of fibrinolysis (clot lysis) inhibition,~3.6 µM and 3.6 µM
same,Cmax,[7],≤ 1000 nM
same,HS,[8],0.97 ± 0.07
same,IC50,[8],~10 µM and 10.4 µM
same,∆Y (efficacy),[8],101.6 ± 2.9%
same,∆Y (efficacy),[8]; listed as pentamidine,~ 100%
same,"APTTEC2×, concentration to double clotting time",[9],26.71 ± 0.50 µm
same,"APTTEC2×, concentration to double clotting time",[10],26.32 ± 3.52 µm
same,concentration that completely inhibited platelet-aggregation,[11],greater than 8.4 µM
